Measurements published in patent publication US20030092757A1, “Favorable modulation of health-related quality of life and health-related quality-adjusted time-to-progression of disease in patients with prostate cancer” (priority 2001, published 2003).

Tested on: patients having hormone refractory prostate cancer (HRPCa)
Experiment: Health-related quality-adjusted time-to-progression (QATTP) of disease, Kaplan-Meier product limit analysis, randomized placebo-controlled study
Format: in vivo, human
Procedure: The health-related QATTP of disease model for this invention expresses progression-free time as an equally preferable amount of time spent in full health. This is achieved by using patient-reported health-related QoL, as measured for the duration of observation or progression-free interval, to weight progression-free time. […] Patients received treatment with 10 mg (N=89) or 2.5 mg (N=95) of atrasentan or placebo (N=104) until experiencing a clinical event indicative of disease progression such as palliative opiate treatment of new bone or visceral pain, palliative radiation treatment of new bone pain, or new tumor growth symptoms requiring intervention or treatment with chemotherapy. Patient-reported health-related QoL data were collected with the EORTC QLQ-30 and the FACT-G and FACT-P, both of which were administered at baseline, at six week intervals and at each patient's final visit. The results from the 10 mg and 2.5 mg treatment groups are reported relative to the placebo group. A patient's transformed domain score and total score from both the EORTC QLQ-30 and FACT were used to weight the time-to-progression outcome data. Transformed domain scores ranged between 0 and 1, so the reported health-related QATTP of disease outcome was never larger than the actual time-to-progression. Each patient's health-related QATTP of disease was computed as the sum of the health-related QoL weights multiplied by the duration for which that patient experienced that health-related QoL. If a patient experienced a clinical event between two health-related QoL assessments, the set of health-related QoL domain scores immediately prior to the event were carried forward to the time of the clinical event. The mean and median health-related QATTP of disease outcomes were then estimated using Kaplan-Meier product limit methodology (Journal of the American Statistical Association, vol. 53, 1958, pp 457-481). The area under a Kaplan-Meier survival curve conveys an estimated mean health-related QATTP of disease. This analysis was applied to both intent-to-treat and per protocol population data. All health-related QATTP of disease comparisons between atrasentan and placebo treatment groups were based on a log-rank test with statistical significance at an α of 0.05. Results of the Kaplan-Meier product limit survival method analysis are reported in TABLE 2 (Intent to Treat) and TABLE 3 (Per Protocol Population). Mean and median health-related QATTP of disease are shown by treatment group. Log-rank tests comparing the differences between treatment groups are also reported.

[1] = EORTC Physical Functioning, 10 mg, intent to treat
[2] = EORTC Physical Functioning, 10 mg, per protocol
[3] = EORTC Role Functioning, 2.5 mg, intent to treat
[4] = EORTC Role Functioning, 2.5 mg, per protocol
[5] = EORTC Role Functioning, 10 mg, intent to treat
[6] = EORTC Role Functioning, 10 mg, per protocol
[7] = EORTC Sleep Disturbance, 2.5 mg, intent to treat
[8] = EORTC Sleep Disturbance, 2.5 mg, per protocol
[9] = EORTC Sleep Disturbance, 10 mg, intent to treat
[10] = EORTC Sleep Disturbance, 10 mg, per protocol
[11] = EORTC Social Functioning, 2.5 mg, intent to treat
[12] = EORTC Social Functioning, 2.5 mg, per protocol
[13] = EORTC Social Functioning, 10 mg, intent to treat
[14] = EORTC Social Functioning, 10 mg, per protocol
[15] = FACT Emotional Well Being, 2.5 mg, intent to treat
[16] = FACT Emotional Well Being, 2.5 mg, per protocol
[17] = FACT Emotional Well Being, 10 mg, intent to treat
[18] = FACT Emotional Well Being, 10 mg, per protocol
[19] = FACT Functional Well Being, 2.5 mg, intent to treat
[20] = FACT Functional Well Being, 2.5 mg, per protocol
[21] = FACT Functional Well Being, 10 mg, intent to treat
[22] = FACT Functional Well Being, 10 mg, per protocol
[23] = FACT Physical Well Being, 2.5 mg, intent to treat
[24] = FACT Physical Well Being, 2.5 mg, per protocol
[25] = FACT Physical Well Being, 10 mg, intent to treat
[26] = FACT Physical Well Being, 10 mg, per protocol
[27] = FACT Social/Family Well Being, 2.5 mg, intent to treat
[28] = FACT Social/Family Well Being, 2.5 mg, per protocol
[29] = FACT Social/Family Well Being, 10 mg, intent to treat
[30] = FACT Social/Family Well Being, 10 mg, per protocol
[31] = FACT Total, 2.5 mg, intent to treat
[32] = FACT Total, 2.5 mg, per protocol
[33] = FACT Total, 10 mg, intent to treat
[34] = FACT Total, 10 mg, per protocol
[35] = FACT-G, 2.5 mg, intent to treat
[36] = FACT-P, 2.5 mg, intent to treat

CCCCN(CCCC)C(=O)CN1C[C@H](c2ccc3c(c2)OCO3)[C@@H](C(=O)O)[C@@H]1c1ccc(OC)cc1 [atrasentan, (2R,3R,4S)-2-(4-methoxyphenyl)-4-(1,3-benzodioxol-5-yl)-1-(((N,N-dibutylamino)carbonyl)methyl)pyrrolidine-3-carboxylic acid]
QATTP of Disease Median (EORTC Physical Functioning, 2.5 mg, per protocol): 124 days | QATTP of Disease Mean [1]: 164 days | QATTP of Disease Median [1]: 119 days | QATTP of Disease Mean [2]: 168 days | QATTP of Disease Median [2]: 127 days | QATTP of Disease Mean [3]: 176 days | QATTP of Disease Median [3]: 128 days | QATTP of Disease Mean [4]: 185 days | QATTP of Disease Median [4]: 142 days | QATTP of Disease Mean [5]: 180 days | QATTP of Disease Median [5]: 123 days | QATTP of Disease Mean [6]: 187 days | QATTP of Disease Median [6]: 128 days | QATTP of Disease Mean [7]: 172 days | QATTP of Disease Median [7]: 127 days | QATTP of Disease Mean [8]: 179 days | QATTP of Disease Median [8]: 137 days | QATTP of Disease Mean [9]: 158 days | QATTP of Disease Median [9]: 123 days | QATTP of Disease Mean [10]: 162 days | QATTP of Disease Median [10]: 127 days | QATTP of Disease Mean [11]: 184 days | QATTP of Disease Median [11]: 142 days | QATTP of Disease Mean [12]: 192 days | QATTP of Disease Median [12]: 156 days | QATTP of Disease Mean [13]: 190 days | QATTP of Disease Median [13]: 135 days | QATTP of Disease Mean [14]: 196 days | QATTP of Disease Median [14]: 141 days | QATTP of Disease Mean [15]: 180 days | QATTP of Disease Median [15]: 133 days | QATTP of Disease Mean [16]: 188 days | QATTP of Disease Median [16]: 147 days | QATTP of Disease Mean [17]: 163 days | QATTP of Disease Median [17]: 127 days | QATTP of Disease Mean [18]: 168 days | QATTP of Disease Median [18]: 131 days | QATTP of Disease Mean [19]: 161 days | QATTP of Disease Median [19]: 111 days | QATTP of Disease Mean [20]: 168 days | QATTP of Disease Median [20]: 111 days | QATTP of Disease Mean [21]: 140 days | QATTP of Disease Median [21]: 98 days | QATTP of Disease Mean [22]: 144 days | QATTP of Disease Median [22]: 113 days | QATTP of Disease Mean [23]: 181 days | QATTP of Disease Median [23]: 135 days | QATTP of Disease Mean [24]: 191 days | QATTP of Disease Median [24]: 148 days | QATTP of Disease Mean [25]: 184 days | QATTP of Disease Median [25]: 127 days | QATTP of Disease Mean [26]: 190 days | QATTP of Disease Median [26]: 130 days | QATTP of Disease Mean [27]: 160 days | QATTP of Disease Median [27]: 126 days | QATTP of Disease Mean [28]: 169 days | QATTP of Disease Median [28]: 143 days | QATTP of Disease Mean [29]: 147 days | QATTP of Disease Median [29]: 121 days | QATTP of Disease Mean [30]: 151 days | QATTP of Disease Median [30]: 126 days | QATTP of Disease Mean [31]: 166 days | QATTP of Disease Median [31]: 125 days | QATTP of Disease Mean [32]: 174 days | QATTP of Disease Median [32]: 135 days | QATTP of Disease Mean [33]: 152 days | QATTP of Disease Median [33]: 117 days | QATTP of Disease Mean [34]: 157 days | QATTP of Disease Median [34]: 127 days | QATTP of Disease Mean [35]: 172 days | QATTP of Disease Median [35]: 129 days | QATTP of Disease Mean (FACT-G, 2.5 mg, per protocol): 180 days | QATTP of Disease Median (FACT-G, 2.5 mg, per protocol): 143 days | QATTP of Disease Mean (FACT-G, 10 mg, intent to treat): 160 days | QATTP of Disease Median (FACT-G, 10 mg, intent to treat): 123 days | QATTP of Disease Mean (FACT-G, 10 mg, per protocol): 165 days | QATTP of Disease Median (FACT-G, 10 mg, per protocol): 130 days | QATTP of Disease Mean [36]: 152 days | QATTP of Disease Median [36]: 115 days | QATTP of Disease Mean (FACT-P, 2.5 mg, per protocol): 160 days | QATTP of Disease Median (FACT-P, 2.5 mg, per protocol): 117 days | QATTP of Disease Mean (FACT-P, 10 mg, intent to treat): 135 days | QATTP of Disease Median (FACT-P, 10 mg, intent to treat): 107 days | QATTP of Disease Mean (FACT-P, 10 mg, per protocol): 139 days | QATTP of Disease Median (FACT-P, 10 mg, per protocol): 111 days | health-related QATTP over placebo (both 10 mg and 2.5 mg, per protocol population, after adjusting for health-related QoL effects): longer | mean health-related QATTP's of disease (data in TABLE 3, both 10 mg and 2.5 mg treatment groups): both delays and improvement | differences in the QATTP across treatment groups (intent-to-treat population): no statistically significant differences
